Blank lines part the entries; values can stand above or below the compound they belong to.
Test system: 628569-122-R-J1-PDC complex spheroid viability
Assay: Anticancer human tumor 628569-122-R-J1-PDC patient-derived head and neck squamous carcinoma cell line growth inhibition [CLK]
Conditions: for IC50: curve of first compound; for viability, T/C: stronger effect = lower value
Summary of the method: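 Patient-derived tumor cells grown as complex spheroids with HUVEC endothelial cells and mesenchymal stem cells, treated with drug combinations. Concentrations descend in half-log steps from near clinical Cmax, or from 10 microM if Cmax unknown.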
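Note: spheroids exposed to agents for seven days before readout.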
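Throughout, for viability, T/C: 100% = DMSO vehicle control viability.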

- IC50 (second compound 0.0316 µM): 4.63 nM
- IC50 (second compound 0.1 µM): 2.65 nM
- IC50 (second compound 0.316 µM): < 0.949 nM
- IC50 (second compound 1 µM): < 0.949 nM
- IC50 (second compound 3.16 µM): < 0.949 nM
- IC50 (second compound 10 µM): < 0.949 nM
Structure (SMILES): CC(C)CC(NC(=O)C(Cc1ccccc1)NC(=O)c1cnccn1)B(O)O (centres undefined) + CNC(=O)c1ccc(Nc2nc(OC3CCCC3)c3c(-c4ccc5nc(C)oc5c4)c[nH]c3n2)c(OC)c1
- viability, T/C (second compound 0.0316 µM, first compound 0.000949 µM): 106%
- viability, T/C (second compound 0.0316 µM, first compound 0.003 µM): 73.5%
- viability, T/C (second compound 0.0316 µM, first compound 0.00949 µM): 11.5%
- viability, T/C (second compound 0.0316 µM, first compound 0.03 µM): 2.71%
- viability, T/C (second compound 0.0316 µM, first compound 0.0949 µM): 11.1%
- viability, T/C (second compound 0.0316 µM, first compound 0.3 µM): 7.23%
- viability, T/C (second compound 0.1 µM, first compound 0.000949 µM): 67.5%
- viability, T/C (second compound 0.1 µM, first compound 0.003 µM): 47.9%
- viability, T/C (second compound 0.1 µM, first compound 0.00949 µM): 9.96%
- viability, T/C (second compound 0.1 µM, first compound 0.03 µM): 3.01%
- viability, T/C (second compound 0.1 µM, first compound 0.0949 µM): 8.44%
- viability, T/C (second compound 0.1 µM, first compound 0.3 µM): 6.5%
- viability, T/C (second compound 0.316 µM, first compound 0.000949 µM): 48.9%
- viability, T/C (second compound 0.316 µM, first compound 0.003 µM): 41.4%
- viability, T/C (second compound 0.316 µM, first compound 0.00949 µM): 9.14%
- viability, T/C (second compound 0.316 µM, first compound 0.03 µM): 2.35%
- viability, T/C (second compound 0.316 µM, first compound 0.0949 µM): 4.07%
- viability, T/C (second compound 0.316 µM, first compound 0.3 µM): 3.8%
- viability, T/C (second compound 1 µM, first compound 0.000949 µM): 46.9%
- viability, T/C (second compound 1 µM, first compound 0.003 µM): 29.3%
- viability, T/C (second compound 1 µM, first compound 0.00949 µM): 4.76%
- viability, T/C (second compound 1 µM, first compound 0.03 µM): 10.9%
- viability, T/C (second compound 1 µM, first compound 0.0949 µM): 17.6%
- viability, T/C (second compound 1 µM, first compound 0.3 µM): 13.2%
- viability, T/C (second compound 3.16 µM, first compound 0.000949 µM): 46.5%
- viability, T/C (second compound 3.16 µM, first compound 0.003 µM): 18%
- viability, T/C (second compound 3.16 µM, first compound 0.00949 µM): 11.5%
- viability, T/C (second compound 3.16 µM, first compound 0.03 µM): 21%
- viability, T/C (second compound 3.16 µM, first compound 0.0949 µM): 9.26%
- viability, T/C (second compound 3.16 µM, first compound 0.3 µM): 7.04%
- viability, T/C (second compound 10 µM, first compound 0.000949 µM): 44.6%
- viability, T/C (second compound 10 µM, first compound 0.003 µM): 19.1%
- viability, T/C (second compound 10 µM, first compound 0.00949 µM): 9.08%
- viability, T/C (second compound 10 µM, first compound 0.03 µM): 7.35%
- viability, T/C (second compound 10 µM, first compound 0.0949 µM): 11.3%
- viability, T/C (second compound 10 µM, first compound 0.3 µM): 12.8%

- IC50 (second compound 0.0316 µM): > 10000 nM
- IC50 (second compound 0.1 µM): > 10000 nM
- IC50 (second compound 0.316 µM): > 10000 nM
- IC50 (second compound 1 µM): > 10000 nM
- IC50 (second compound 3.16 µM): < 31.6 nM
- IC50 (second compound 10 µM): 80.2 nM
Structure (SMILES): CC1(C)CCC(CN2CCN(c3ccc(C(=O)NS(=O)(=O)c4ccc(NCC5CCOCC5)c([N+](=O)[O-])c4)c(Oc4cnc5[nH]ccc5c4)c3)CC2)=C(c2ccc(Cl)cc2)C1 + CNC(=O)c1ccc(Nc2nc(OC3CCCC3)c3c(-c4ccc5nc(C)oc5c4)c[nH]c3n2)c(OC)c1
- viability, T/C (second compound 0.0316 µM, first compound 0.0316 µM): 124%
- viability, T/C (second compound 0.0316 µM, first compound 0.1 µM): 102%
- viability, T/C (second compound 0.0316 µM, first compound 0.316 µM): 96.6%
- viability, T/C (second compound 0.0316 µM, first compound 1 µM): 94.7%
- viability, T/C (second compound 0.0316 µM, first compound 3.16 µM): 111%
- viability, T/C (second compound 0.0316 µM, first compound 10 µM): 75.4%
- viability, T/C (second compound 0.1 µM, first compound 0.0316 µM): 65.9%
- viability, T/C (second compound 0.1 µM, first compound 0.1 µM): 55.9%
- viability, T/C (second compound 0.1 µM, first compound 0.316 µM): 60.4%
- viability, T/C (second compound 0.1 µM, first compound 1 µM): 57.5%
- viability, T/C (second compound 0.1 µM, first compound 3.16 µM): 60.4%
- viability, T/C (second compound 0.1 µM, first compound 10 µM): 63.4%
- viability, T/C (second compound 0.316 µM, first compound 0.0316 µM): 52.7%
- viability, T/C (second compound 0.316 µM, first compound 0.1 µM): 51.8%
- viability, T/C (second compound 0.316 µM, first compound 0.316 µM): 53.6%
- viability, T/C (second compound 0.316 µM, first compound 1 µM): 57.9%
- viability, T/C (second compound 0.316 µM, first compound 3.16 µM): 69.7%
- viability, T/C (second compound 0.316 µM, first compound 10 µM): 51%
- viability, T/C (second compound 1 µM, first compound 0.0316 µM): 48.1%
- viability, T/C (second compound 1 µM, first compound 0.1 µM): 51.4%
- viability, T/C (second compound 1 µM, first compound 0.316 µM): 53.2%
- viability, T/C (second compound 1 µM, first compound 1 µM): 59.6%
- viability, T/C (second compound 1 µM, first compound 3.16 µM): 49.4%
- viability, T/C (second compound 1 µM, first compound 10 µM): 53.6%
- viability, T/C (second compound 3.16 µM, first compound 0.0316 µM): 46.1%
- viability, T/C (second compound 3.16 µM, first compound 0.1 µM): 48.4%
- viability, T/C (second compound 3.16 µM, first compound 0.316 µM): 53.5%
- viability, T/C (second compound 3.16 µM, first compound 1 µM): 51.4%
- viability, T/C (second compound 3.16 µM, first compound 3.16 µM): 45.8%
- viability, T/C (second compound 3.16 µM, first compound 10 µM): 41.2%
- viability, T/C (second compound 10 µM, first compound 0.0316 µM): 59.9%
- viability, T/C (second compound 10 µM, first compound 0.1 µM): 48.7%
- viability, T/C (second compound 10 µM, first compound 0.316 µM): 41.1%
- viability, T/C (second compound 10 µM, first compound 1 µM): 43.5%
- viability, T/C (second compound 10 µM, first compound 3.16 µM): 47.2%
- viability, T/C (second compound 10 µM, first compound 10 µM): 38.6%

From PubChem BioAssay AID2060611 (Molecular Pharmacology Branch, DTP, NCI, 2025)
